# Results taken from patent US20080050720A1 (priority 2003, published 2008).
# Columns and labels:
# [1] = test system: lawn of the YMR325W reporter strain (S. Cerevisiae strain ABY12); assay: Solid plate halo assay, growth of reporter strain lawn; assay type: cell-based; details: paper disc; 20 ul of 50 ug/ml Miconazole or 20 ul of 1500 ug/ml Lovastatin; 30° C.
# Method: (§1) The assay was designed to mimic assays of natural product producing strains in the presence of ABY12 reporter carrying strains.
# (§2) 1. A YMR325W reporter was transformed into wild-type S. Cerevisiae strain ABY12 and grown on a solid Casamino Acids media plate.
# (§3) 2. A culture from the solid media plate was used to inoculate a 50 ml liquid culture in Casamino Acids media. The liquid culture was grown overnight at 30° C. to a final OD600=8, and then diluted in Casamino Acids media to an OD600=1, or about 1×10^7 cells per milliliter. Five-hundred microliters of cell culture (about 5×10^6 cells) was spread evenly over the surface of each of two 100 mm solid agar-Casamino-acids-media plates to form a lawn of the YMR325W reporter strain on each plate.
# 3. Two 6 mm diameter blank paper discs (Becton Dickinson #231039), evenly spaced apart, were placed on top of the agar surface of each plate. On one plate 20 ul of 50 ug/ml of the sterol biosynthesis inhibitor Miconazole was spotted onto one of the two paper discs and 20 ul of 10% DMSO was spotted on the other paper disc as a control. On the other plate 20 ul of 1500 ug/ml Lovastatin was spotted onto one of the two paper discs and 20 ul of 10% DMSO was spotted on the other paper disc as a control. […]
# (§4) 4. After a 72 hour incubation the assay plates were imaged in a Molecular Dynamics Fluorimager SI to measure the fluorescence from the GFP reporters.
# [2] = test system: YMR325W reporter; assay: Solid plate halo assay, fluorescence from the GFP reporter; assay type: cell-based, S. cerevisiae; details: for induction of YMR325W reporter (zone of high fluorescence at the edge of halo): paper disc, 20 ul of 50 ug/ml Miconazole or 20 ul of 1500 ug/ml Lovastatin, 30° C.
# Method: as §1, §2, §3
# 3. Two 6 mm diameter blank paper discs (Becton Dickinson #231039), evenly spaced apart, were placed on top of the agar surface of each plate. On one plate 20 ul of 50 ug/ml of the sterol biosynthesis inhibitor Miconazole was spotted onto one of the two paper discs and 20 ul of 10% DMSO was spotted on the other paper disc as a control. On the other plate 20 ul of 1500 ug/ml Lovastatin was spotted onto one of the two paper discs and 20 ul of 10% DMSO was spotted on the other paper disc as a control. The plates were incubated at 30° C. overnight.
# as §4
# [3] = test system: YMR325W gene reporter; assay: 96-well liquid high-throughput like assay with YMR325W-GFP reporter strain; assay type: cell-based, S. cerevisiae; details: serial 1 to 2 dilutions; initial Lovastatin 30 ug/ml, Miconazole 25 ug/ml, Fenpropimorph 50 ug/ml, Tunicamycin 25 ug/ml; 30° C., about 24 hours
# Method: 1. A YMR325W gene reporter was transformed into wild-type S. Cerevisiae strain ABY12 and grown on solid Casamino Acids media plates.
# 2. A culture from the solid media plate was used to inoculate a 50 ml liquid culture in Casamino Acids media. The liquid culture was grown overnight at 30° C. to an OD600=8, and then was diluted in Casamino Acids media to an OD600=1.
# 3. Drug-like agents Lovastatin, Miconazole, and Fenpropimorph, sterol biosynthesis inhibitors that target different molecular steps in the sterol biosynthesis pathway, and UDP-N-acetyl-glucosamine-1-P transferase (GPT) inhibitor Tunicamycin, a negative control, were used in the assay. Each of the four drugs was added to individual wells (one drug per well) in the second column of a 96-well assay plate and serially diluted (1 to 2) into Casamino Acids media plus 2% DMSO in columns 3-12. The initial concentrations of the drugs were as follows: Lovastatin: 30 ug/ml, Miconazole: 25 ug/ml, Fenpropimorph: 50 ug/ml, and Tunicamycin: 25 ug/ml. The first column of the plate was used as a “no drug” control, containing only Casamino Acids media plus 2% DMSO. Each well contained a final volume of 100 ul of media and/or media plus drug.
# 4. […]
# 5. After the 24 hour incubation the 96-well assay plate was imaged in a Molecular Dynamics Fluorimager SI to measure the fluorescence from the YMR325W-GFP reporter.
Compound,growth inhibition of the lawn (halo of no growth) [1],"size of zone of fluorescence, Lovastatin compared with Miconazole ([2]; 20 ul of 1500 ug/ml Lovastatin versus 20 ul of 50 ug/ml Miconazole)",induction of YMR325W reporter (zone of high fluorescence at the edge of halo) [2],fluorescence from the YMR325W-GFP reporter [3]
CC[C@H](C)C(=O)O[C@H]1C[C@@H](C)C=C2C=C[C@H](C)[C@H](CC[C@@H]3C[C@@H](O)CC(=O)O3)[C@H]21 [Lovastatin],inhibited the growth,much larger zone of fluorescence,significantly induced,–
Clc1ccc(COC(Cn2ccnc2)c2ccc(Cl)cc2Cl)c(Cl)c1 (stereo not drawn) [Miconazole],inhibited the growth,–,significantly induced,–
Tunicamycin,–,–,–,No increase in fluorescence
